Converted amounts (≈) assume the structure as drawn.

Holding throughout (assay type): functional
The test system of one experiment is Staphylococcus aureus. Description: Antibacterial activity against Staphylococcus aureus isolate by agar cup method.
Another experiment deals with Bacillus subtilis. Put plainly: Antibacterial activity against Bacillus subtilis isolate by agar cup method.
The test system of the next experiment is Escherichia coli. Description: Antibacterial activity against Escherichia coli isolate by agar cup method.
The next experiment deals with Pseudomonas aeruginosa. Put plainly: Antibacterial activity against Pseudomonas aeruginosa isolate by agar cup method.

The term MIC denotes the smallest concentration in the dilution series that meets the test's criterion for growth inhibition. A low value points to a more susceptible organism. For the compound `Brc1ccc2c3c(ccc2c1)OCc1[se]nnc1-3`, the MIC was 50 µg/mL (≈ 137 µM) against Staphylococcus aureus, 100 µg/mL (≈ 273 µM) against Bacillus subtilis, 50 µg/mL (≈ 137 µM) in the experiment with Escherichia coli and 500 µg/mL (≈ 1370 µM) with Pseudomonas aeruginosa.

For `CC1Oc2ccc3cc(Br)ccc3c2-c2nn[se]c21` (stereo not given), the MIC is 500 µg/mL (≈ 1320 µM) against Staphylococcus aureus, 50 µg/mL (≈ 132 µM) against Bacillus subtilis, 500 µg/mL (≈ 1320 µM) against Escherichia coli and 1000 µg/mL (≈ 2630 µM) in the experiment on Pseudomonas aeruginosa.

For the compound `c1ccc2c3c(ccc2c1)OCc1[se]nnc1-3`, the MIC in the experiment on Staphylococcus aureus is 250 µg/mL (≈ 871 µM); in the experiment with Bacillus subtilis, 250 µg/mL (≈ 871 µM); in the experiment on Escherichia coli it was 250 µg/mL (≈ 871 µM); against Pseudomonas aeruginosa, 1000 µg/mL (≈ 3480 µM).

`Brc1cccc2c3c(ccc12)OCc1[se]nnc1-3`: the MIC is 50 µg/mL (≈ 137 µM) against Staphylococcus aureus, 100 µg/mL (≈ 273 µM) in the experiment with Bacillus subtilis, 250 µg/mL (≈ 683 µM) against Escherichia coli and 1000 µg/mL (≈ 2730 µM) against Pseudomonas aeruginosa.

With `CC1Oc2ccc3ccccc3c2-c2nn[se]c21` (stereo not given), the MIC in the experiment on Staphylococcus aureus came out at 250 µg/mL (≈ 830 µM); against Bacillus subtilis, 250 µg/mL (≈ 830 µM); with Escherichia coli, 500 µg/mL (≈ 1660 µM); in the experiment with Pseudomonas aeruginosa, 1000 µg/mL (≈ 3320 µM).

Source of the values: ChEMBL document CHEMBL1154462, “Synthesis and in vitro anti-bacterial evaluation of tetracyclic-ortho-fused 4H-naphtho[1',2'-5,6]pyrano[3,4-d](1,2,3)selenadiazole and its derivatives” (2008).
